Usually Kd stands for the constant that tells how readily two partners part at equilibrium. A lower Kd goes with higher affinity.

Common to all, as to type: binding
One test concerns the target CxD7L1 (Culex quinquefasciatus, UniProt A0A1S4K3K8). Put plainly: ITC. Set-up: gene D7L1; mature protein, C-terminal 6x-His, HEK293. Background: ITC needs no label: the signal is the heat of the interaction.
For test [1], the target named is T1, CxD7L2 (Culex quinquefasciatus, UniProt B0X6Z1).
T1 construct: gene D7L2; full-length mature protein, C-terminal 6x-His, HEK293
T1 sequence (B0X6Z1 21-313 limits assumed): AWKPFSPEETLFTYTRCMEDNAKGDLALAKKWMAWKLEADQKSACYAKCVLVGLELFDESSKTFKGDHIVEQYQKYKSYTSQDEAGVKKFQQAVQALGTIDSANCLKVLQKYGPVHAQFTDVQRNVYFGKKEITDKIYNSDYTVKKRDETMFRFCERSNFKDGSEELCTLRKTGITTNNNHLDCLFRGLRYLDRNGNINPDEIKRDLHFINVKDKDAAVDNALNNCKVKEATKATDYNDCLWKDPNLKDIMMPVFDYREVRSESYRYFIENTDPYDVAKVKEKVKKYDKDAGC
Put plainly: ITC.

The target of test [2] is T1, CxD7L2. Put plainly: ITC (also with protein saturated with serotonin).

Chain of CxD7L1 (A0A1S4K3K8 17-311 limits assumed): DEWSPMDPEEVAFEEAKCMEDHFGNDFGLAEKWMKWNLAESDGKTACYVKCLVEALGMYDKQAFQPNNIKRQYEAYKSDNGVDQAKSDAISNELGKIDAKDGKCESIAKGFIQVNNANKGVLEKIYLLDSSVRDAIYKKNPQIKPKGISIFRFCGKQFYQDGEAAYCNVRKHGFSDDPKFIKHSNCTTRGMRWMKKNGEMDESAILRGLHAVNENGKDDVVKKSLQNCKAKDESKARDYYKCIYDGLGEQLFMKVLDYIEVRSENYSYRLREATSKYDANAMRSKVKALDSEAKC

On CxD7L1, `Nc1ncnc2c1ncn2[C@@H]1O[C@H](COP(=O)(O)O)[C@@H](O)[C@H]1O` [AMP] gave a Kd of 77.5 nM.
The same measure, in the same setting: the same measure for `Nc1ncnc2c1ncn2[C@@H]1O[C@H](COP(=O)(O)OP(=O)(O)OP(=O)(O)O)[C@@H](O)[C@H]1O` [ATP]: 30.8 nM.
`NCCc1c[nH]cn1` [Histamine] gave a Kd on CxD7L2 [1] of 383 nM.
Regarding `CCCCC/C=C\C\C=C/C=C/C=C/[C@@H](SC[C@H](NC(=O)CC[C@H](N)C(=O)O)C(=O)NCC(=O)O)[C@@H](O)CCCC(=O)O` [LTC4], the Kd at CxD7L2 [1] was found to be 152 nM.
Molecule `CCCCC/C=C\C\C=C/C=C/C=C/[C@@H](SC[C@H](N)C(=O)NCC(=O)O)[C@@H](O)CCCC(=O)O` [LTD4] came in with a Kd at CxD7L2 [2] of 156 nM.
`CCCCC/C=C\C\C=C/C=C/C=C/[C@@H](SC[C@H](N)C(=O)O)[C@@H](O)CCCC(=O)O` [LTE4] had a Kd on CxD7L2 [1] of 159 nM.
Molecule `NCCc1c[nH]c2ccc(O)cc12` [Serotonin] showed a Kd at CxD7L2 [1] of 7.46 nM.
